Measurements: patent US20070049593A1 (priority 2004, published 2007)
Counter-ions that a name gives are not always drawn.

The compounds below were run against T1, HCV polymerase (Hepatitis C virus genotype 1b, UniProt P26663) (assay: biochemical).
T1 construct: a region encoding NS5B (J Virol 1991 March, 65(3), 1105-13, 544 amino acids after deletion of 47 amino acids on the C-terminal); 6xHis (C); made in house; host or cells: Escherichia coli
Set-up: species or system HCV BK strain
Source text: The evaluation of the HCV polymerase inhibitory activity of the compound of the present invention is explained in the following. This polymerase is an enzyme coded for by the non-structural protein region called NS5B on the genome RNA of HCV (EMBO J., 15:12-22, 1996).
Using, as a template, a cDNA clone corresponding to the full length genome RNA of HCV BK strain obtained from the blood of a patient with hepatitis C, a region encoding NS5B (J Virol 1991 March, 65(3), 1105-13, 544 amino acids after deletion of 47 amino acids on the C-terminal) was amplified by PCR. The objective gene was prepared by adding a 6 His tag {base pair encoding 6 continuous histidine (His)}to the 3′ end thereof and transformed to Escherichia coli. The Escherichia coli capable of producing the objective protein was cultured. The obtained cells were suspended in a buffer solution and crushed in a microfluidizer.
Using a synthetic primer designed based on the sequence of HCV genomic 3′ untranslated region, a DNA fragment (148 bp) containing polyU and 3′X sequence was entirely synthesized and cloned into plasmid pBluescript SK II(+) (Stratagene). The cDNA encoding full length NS5B, which was prepared in i) above, was digested with restriction enzyme KpnI to give a cDNA fragment containing the nucleotide sequence of from the restriction enzyme cleavage site to the termination codon. This cDNA fragment was inserted into the upstream of 3′ untranslated region of the DNA in pBluescript SK II(+) and ligated. The about 450 bp inserted DNA sequence was used as a template in the preparation of substrate RNA.
RNA was synthesized (37° C., 3 hr) by run-off method using this purified DNA as a template, a promoter of pBluescript SK II(+), MEGAscript RNA synthesis kit (Ambion) and T7 RNA polymerase. DNase I was added and the mixture was incubated for 1 hr. The template DNA was removed by decomposition to give a crude RNA product.
A test substance (compound of the present invention) and a reaction mixture (30 μl) having the following composition were reacted at 25° C. for 90 min.
10% Trichloroacetic acid at 4° C. and 1% sodium pyrophosphate solution (150 μl) were added to this reaction mixture to stop the reaction. The reaction mixture was left standing in ice for 15 min to insolubilize RNA. This RNA was trapped on a glass filter (Whatman GF/C and the like) upon filtration by suction. This filter was washed with a solution containing 1% trichloroacetic acid and 0.1% sodium pyrophosphate, washed with 90% ethanol and dried. A liquid scintillation cocktail (Packard) was added and the radioactivity of RNA synthesized by the enzyme reaction was measured on a liquid scintillation counter.
The HCV polymerase inhibitory activity (IC50) of the compound of the present invention was calculated from the values of radioactivity of the enzyme reaction with and without the test substance.
Reaction mixture: HCV polymerase (0.5 μg/ml) obtained in i), substrate RNA (5 μg/ml) obtained in ii), ATP (50 μM), GTP (50 μM), CTP ([…]), UTP (2 μM), [5,6-^3H]UTP (46 Ci/mmol (Amersham), 1 μCi) 20 mM Tris-HCl (pH 7.5), EDTA (1 mM), MgCl2 (5 mM), NaCl (50 mM), DTT (1 mM), BSA (0.01%)

T1 sequence (P26663 2420-2963): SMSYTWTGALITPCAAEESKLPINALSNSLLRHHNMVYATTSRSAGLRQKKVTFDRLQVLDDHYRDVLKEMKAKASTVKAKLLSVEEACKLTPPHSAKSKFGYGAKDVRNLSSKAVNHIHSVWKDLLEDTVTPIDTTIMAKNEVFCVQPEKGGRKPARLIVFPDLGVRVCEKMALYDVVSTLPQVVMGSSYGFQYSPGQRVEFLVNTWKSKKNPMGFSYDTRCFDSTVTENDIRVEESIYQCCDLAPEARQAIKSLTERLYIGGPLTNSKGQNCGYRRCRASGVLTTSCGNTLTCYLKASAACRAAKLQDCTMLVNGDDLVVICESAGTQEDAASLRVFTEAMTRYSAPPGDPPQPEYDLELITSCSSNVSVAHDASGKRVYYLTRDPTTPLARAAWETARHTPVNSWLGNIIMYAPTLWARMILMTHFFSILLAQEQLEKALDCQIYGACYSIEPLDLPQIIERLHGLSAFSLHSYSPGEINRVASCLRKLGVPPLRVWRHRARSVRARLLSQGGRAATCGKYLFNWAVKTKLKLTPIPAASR

Q: With `COCCN(C)C(=O)CN1CCn2c(c(C3CCCCC3)c3ccc(C(=O)O)cc32)-c2ccccc21` [Example 1-37, 13-cyclohexyl-5-{[N-(2-methoxyethyl)-N-methylcarbamoyl]methyl}-6,7-dihydro-5H-benzo[5,6][1,4]diazepino[7,1-a]indole-10-carboxylic acid monohydrochloride] as the compound, how does the IC50 read?
A: < 100 nM

Q: With `CCN1CCN(CCN2CCn3c(c(C4CCCCC4)c4ccc(C(=O)O)cc43)-c3ccccc32)CC1` [Example 1-38, 13-cyclohexyl-5-[2-(4-ethylpiperazin-1-yl)ethyl]-6,7-dihydro-5H-benzo[5,6][1,4]diazepino[7,1-a]indole-10-carboxylic acid dihydrochloride] as the compound, how does the IC50 read?
A: < 100 nM

Q: How did the IC50 turn out when `COC1CCN(CCN2CCn3c(c(C4CCCCC4)c4ccc(C(=O)O)cc43)-c3ccccc32)CC1` [Example 1-39, 13-cyclohexyl-5-[2-(4-methoxypiperidin-1-yl)ethyl]-6,7-dihydro-5H-benzo[5,6][1,4]diazepino[7,1-a]indole-10-carboxylic acid dihydrochloride] was run?
A: < 100 nM

Q: `COCCN(C)CCN1CCn2c(c(C3CCCCC3)c3ccc(C(=O)O)cc32)-c2ccccc21` [Example 1-40, 13-cyclohexyl-5-{2-[N-(2-methoxyethyl)-N-methylamino]ethyl}-6,7-dihydro-5H-benzo[5,6][1,4]diazepino[7,1-a]indole-10-carboxylic acid dihydrochloride] was tested. Which IC50 did it give?
A: < 100 nM

Q: With `O=C(O)c1ccc2c(C3CCCCC3)c3n(c2c1)CCN(CCc1ccccc1)c1ccccc1-3` [Example 1-41, 13-cyclohexyl-5-phenethyl-6,7-dihydro-5H-benzo[5,6][1,4]diazepino[7,1-a]indole-10-carboxylic acid monohydrochloride] as the compound, how does the IC50 read?
A: < 100 nM

Q: Which IC50 does the source give for `O=C(O)c1ccc2c(C3CCCCC3)c3n(c2c1)CCN(CCN1CCC(O)CC1)c1ccccc1-3` [Example 1-42, 13-cyclohexyl-5-[2-(4-hydroxypiperidin-1-yl)ethyl]-6,7-dihydro-5H-benzo[5,6][1,4]diazepino[7,1-a]indole-10-carboxylic acid dihydrochloride] here?
A: < 100 nM

Q: How did the IC50 turn out when `CN(C)C1CCN(C(=O)CN2CCn3c(c(C4CCCCC4)c4ccc(C(=O)O)cc43)-c3ccccc32)CC1` [Example 1-43, 13-cyclohexyl-5-[2-(4-dimethylaminopiperidin-1-yl)-2-oxoethyl]-6,7-dihydro-5H-benzo[5,6][1,4]diazepino[7,1-a]indole-10-carboxylic acid dihydrochloride] was run?
A: < 100 nM

Q: How did the IC50 turn out when `CN(C)C1CCN(CCN2CCn3c(c(C4CCCCC4)c4ccc(C(=O)O)cc43)-c3ccccc32)CC1` [Example 1-44, 13-cyclohexyl-5-[2-(4-dimethylaminopiperidin-1-yl)ethyl]-6,7-dihydro-5H-benzo[5,6][1,4]diazepino[7,1-a]indole-10-carboxylic acid trihydrochloride] was run?
A: < 100 nM

Q: How did the IC50 turn out when `O=C(O)c1ccc2c(C3CCCCC3)c3n(c2c1)CCN(CC(=O)N1CCS(=O)(=O)CC1)c1ccccc1-3` [Example 1-45, 13-cyclohexyl-5-[2-(1,1-dioxothiomorpholin-4-yl)-2-oxoethyl]-6,7-dihydro-5H-benzo[5,6][1,4]diazepino[7,1-a]indole-10-carboxylic acid monohydrochloride] was run?
A: < 100 nM

Q: `CCOC(=O)N1CCN(C(=O)CN2CCn3c(c(C4CCCCC4)c4ccc(C(=O)O)cc43)-c3ccccc32)CC1` [Example 1-46, 13-cyclohexyl-5-[2-(4-ethoxycarbonylpiperazin-1-yl)-2-oxoethyl]-6,7-dihydro-5H-benzo[5,6][1,4]diazepino[7,1-a]indole-10-carboxylic acid monohydrochloride] was tested. Which IC50 did it give?
A: < 100 nM

Q: `CC(C)N1CCN(C(=O)CN2CCn3c(c(C4CCCCC4)c4ccc(C(=O)O)cc43)-c3ccccc32)CC1` [Example 1-47, 13-cyclohexyl-5-[2-(4-isopropylpiperazin-1-yl)-2-oxoethyl]-6,7-dihydro-5H-benzo[5,6][1,4]diazepino[7,1-a]indole-10-carboxylic acid dihydrochloride] was tested. Which IC50 did it give?
A: < 100 nM

Q: Which IC50 does the source give for `CC(C)N1CCN(CCN2CCn3c(c(C4CCCCC4)c4ccc(C(=O)O)cc43)-c3ccccc32)CC1` [Example 1-48, 13-cyclohexyl-5-[2-(4-isopropylpiperazin-1-yl)ethyl]-6,7-dihydro-5H-benzo[5,6][1,4]diazepino[7,1-a]indole-10-carboxylic acid trihydrochloride] here?
A: < 100 nM

Q: `O=C(O)c1ccc2c(C3CCCCC3)c3n(c2c1)CCN(CC(=O)N1CCCOCC1)c1ccccc1-3` [Example 1-49, 13-cyclohexyl-5-[2-(1,4-oxazepan-4-yl)-2-oxoethyl]-6,7-dihydro-5H-benzo[5,6][1,4]diazepino[7,1-a]indole-10-carboxylic acid monohydrochloride] was tested. Which IC50 did it give?
A: < 100 nM

Q: Which IC50 does the source give for `CN1CCN(C(=O)CN2CCn3c(c(C4CCCCC4)c4ccc(C(=O)O)cc43)-c3ccccc32)CC1` [Example 1-50, 13-cyclohexyl-5-[2-(4-methylpiperazin-1-yl)-2-oxoethyl]-6,7-dihydro-5H-benzo[5,6][1,4]diazepino[7,1-a]indole-10-carboxylic acid dihydrochloride] here?
A: < 100 nM

Q: With `CC(=O)N1CCN(C(=O)CN2CCn3c(c(C4CCCCC4)c4ccc(C(=O)O)cc43)-c3ccccc32)CC1` [Example 1-51, 5-[2-(4-acetylpiperazin-1-yl)-2-oxoethyl]-13-cyclohexyl-6,7-dihydro-5H-benzo[5,6][1,4]diazepino[7,1-a]indole-10-carboxylic acid monohydrochloride] as the compound, how does the IC50 read?
A: < 100 nM

Q: For `CN1CCN(CCN2CCn3c(c(C4CCCCC4)c4ccc(C(=O)O)cc43)-c3ccccc32)CC1` [Example 1-52, 13-cyclohexyl-5-[2-(4-methylpiperazin-1-yl)ethyl]-6,7-dihydro-5H-benzo[5,6][1,4]diazepino[7,1-a]indole-10-carboxylic acid trihydrochloride], which IC50 is on record?
A: < 100 nM

Q: With `CN1CCCN(CCN2CCn3c(c(C4CCCCC4)c4ccc(C(=O)O)cc43)-c3ccccc32)CC1` [Example 1-53, 13-cyclohexyl-5-[2-(4-methyl-1,4-diazepan-1-yl)ethyl]-6,7-dihydro-5H-benzo[5,6][1,4]diazepino[7,1-a]indole-10-carboxylic acid trihydrochloride] as the compound, how does the IC50 read?
A: < 100 nM

Q: Which IC50 does the source give for `CN1CCCN(C(=O)CN2CCn3c(c(C4CCCCC4)c4ccc(C(=O)O)cc43)-c3ccccc32)CC1` [Example 1-54, 13-cyclohexyl-5-[2-(4-methyl-1,4-diazepan-1-yl)-2-oxoethyl]-6,7-dihydro-5H-benzo[5,6][1,4]diazepino[7,1-a]indole-10-carboxylic acid dihydrochloride] here?
A: < 100 nM

Q: For `CCN1CCN(C(=O)CN2CCn3c(c(C4CCCCC4)c4ccc(C(N)=O)cc43)-c3ccccc32)CC1` [Example 1-55, 13-cyclohexyl-5-[2-(4-ethylpiperazin-1-yl)-2-oxoethyl]-6,7-dihydro-5H-benzo[5,6][1,4]diazepino[7,1-a]indole-10-carboxamide], which IC50 is on record?
A: < 100 nM

Q: `O=C(O)c1ccc2c(C3CCCCC3)c3n(c2c1)CCN(CC(=O)N1CCCC1)c1ccccc1-3` [Example 1-56, 13-cyclohexyl-5-[2-oxo-2-(pyrrolidin-1-yl)ethyl]-6,7-dihydro-5H-benzo[5,6][1,4]diazepino[7,1-a]indole-10-carboxylic acid monohydrochloride] was tested. Which IC50 did it give?
A: < 100 nM

Q: Which IC50 does the source give for `O=C(O)c1ccc2c(C3CCCCC3)c3n(c2c1)CCN(CCN1CCCC1)c1ccccc1-3` [Example 1-57, 13-cyclohexyl-5-[2-(pyrrolidin-1-yl)ethyl]-6,7-dihydro-5H-benzo[5,6][1,4]diazepino[7,1-a]indole-10-carboxylic acid dihydrochloride] here?
A: < 100 nM

Q: Which IC50 does the source give for `O=C(O)c1ccc2c(C3CCCCC3)c3n(c2c1)CCN(CC(=O)N1CCOCC1)c1cc(Cl)ccc1-3` [Example 1-60, 3-chloro-13-cyclohexyl-5-[2-(morpholin-4-yl)-2-oxoethyl]-6,7-dihydro-5H-benzo[5,6][1,4]diazepino[7,1-a]indole-10-carboxylic acid monohydrochloride] here?
A: < 100 nM
